The values below come from patent US20250382332A1, “NOVEL ALPHA-FACTOR BASED PEPTIDES WITH ANTIFUNGAL ACTIVITY” (INVAIO SCIENCES, INC., priority 2024, published 2025).

Peptide text beside a SMILES is read from it.

Usually Inhibition stands for the drop in the measured response relative to a control, in per cent.

The subject of this assay is Botrytis cinerea (B05.10). As to the kind of experiment: Resazurin antifungal assay of 180 alpha-factor peptide variants towards Botrytis (Example 2). It counts as cell-based. More on the design: key to active against Botrytis at 15 μM / active against Botrytis at 10 μM: Peptides that showed greater than 90% inhibition were considered active against Botrytis. To be noted: for Inhibition at 10 μM / Inhibition at 20 μM / Inhibition at 50 μM / Inhibition at 100 μM / Inhibition at 15 μM: % inhibition of fungal growth, Botrytis conidia, resazurin; for Inhibition at 10 μM: peptide 10 μM; for Inhibition at 20 μM: peptide 20 μM; for Inhibition at 50 μM: peptide 50 μM; for Inhibition at 100 μM: peptide 100 μM; for Inhibition at 15 μM / active against Botrytis at 15 μM: peptide 15 μM. Here is the method:
The antifungal activity of 180 alpha-factor peptide variants towards Botrytis was tested. Experimental design:
Peptides corresponding to SEQ ID NO: 1-180 were chemically synthesized using the solid-phase synthesis method and resuspended in water to a stock solution of 1 mM. The stock solution was aliquoted in cryovials and stored at −80° C.
The Botrytis cinerea culture (B05.10) isolate was acquired from the Centraalbureau voor Schimmelcultures, the Netherlands. The Botrytis fungus was propagated on 0.5% V8 agar plates (200 ml V8 Juice, 3 g CaCO3, 15 g agar, 800-ml millipore water) at 20° C., in a 12 h photoperiod for 21 days.
Fungal conidia were harvested by scraping a Botrytis plate flooded with 1 ml water with 0.1% Tween 80 solution. Conidia were then collected in a 50 ml falcon tube by passing the solution through a 40 micron filter. The solution was then centrifuged at 6000 rpm and the pellet was resuspended in 1 ml of 20% glycerol. The conidia concentration of the resulting solution was counted using a hemocytometer. The stock was diluted to […] using 20% glycerol and frozen in 100 μl aliquots in −80° C. until further use.
Peptides were tested for activity against Botrytis, using the resazurin assay. For this, fungal stock conidia was first diluted to 5000 conidia/well. 50 μl of the spore suspension was added to each well of the sterile 96-well clear bottom testing plate and mixed with 50 μl of peptide solutions to a final concentration of 100, 50, 20, 15 and 10 μM. The plate was incubated for 24 h at 20° C. After 24 h, 10 μl of resazurin dye was added to the microtiter plate and incubated again for […]. Fluorescence was measured at 570/620 nm after 4 h of incubation with resazurin.
Growth inhibition was calculated by subtracting the fluorescence values of conidia only wells from sample wells and depicted as % inhibition of fungal growth. Four technical replicates were used for all treatments.
For orientation: The colour change of resazurin is a common sign of viable cells or microbes.

Regarding `CSCC[C@H](NC(=O)[C@H](CO)NC(=O)[C@H](CCC(N)=O)NC(=O)CNC(=O)[C@H](CCCNC(=N)N)NC(=O)[C@H](Cc1c[nH]c2ccccc12)NC(=O)[C@H](Cc1ccccc1)NC(=O)[C@H](CCC(N)=O)NC(=O)[C@H](CC(C)C)NC(=O)[C@H](Cc1c[nH]c2ccccc12)NC(=O)[C@H](Cc1c[nH]cn1)NC(=O)[C@@H](N)Cc1c[nH]c2ccccc12)C(=O)N[C@@H](Cc1ccc(O)cc1)C(=O)O` [compound 1] (H-WHWLQFWRGQSMY-OH; N-terminus and C-terminus assumed), the “Inhibition at 10 μM” value is below 90%, the “Inhibition at 20 μM” value is listed as below 90%, the “Inhibition at 50 μM” value came to 100% and the “Inhibition at 100 μM” value is reported as 100%.

In the case of `CSCC[C@H](NC(=O)[C@@H]1CCCN1C(=O)[C@H](CCC(N)=O)NC(=O)CNC(=O)[C@H](CCCCN)NC(=O)[C@H](CCCCN)NC(=O)[C@H](Cc1ccccc1)NC(=O)[C@H](CO)NC(=O)CNC(=O)[C@H](Cc1c[nH]c2ccccc12)NC(=O)[C@H](Cc1c[nH]cn1)NC(=O)[C@@H]1CCCN1)C(=O)N[C@@H](Cc1ccc(O)cc1)C(=O)O` [compound 2] (H-PHWGSFKKGQPMY-OH; N-terminus and C-terminus assumed), the “Inhibition at 10 μM” value is listed as below 90%, the “Inhibition at 20 μM” value is on record as below 90%, the “Inhibition at 50 μM” value turned out to be 100% and the “Inhibition at 100 μM” value is 100%.

As to `CSCC[C@H](NC(=O)[C@@H]1CCCN1C(=O)[C@H](C)NC(=O)CNC(=O)[C@H](Cc1c[nH]c2ccccc12)NC(=O)[C@H](CCCCN)NC(=O)[C@H](CC(C)C)NC(=O)[C@@H](NC(=O)[C@@H](NC(=O)[C@H](Cc1c[nH]c2ccccc12)NC(=O)[C@H](Cc1c[nH]cn1)NC(=O)[C@@H](N)CCCCN)C(C)C)[C@@H](C)O)C(=O)N[C@@H](Cc1ccc(O)cc1)C(=O)O` [compound 3] (H-KHWVTLKWGAPMY-OH; N-terminus and C-terminus assumed), the “Inhibition at 10 μM” value was below 90%, the “Inhibition at 15 μM” value is below 90%, the “Inhibition at 20 μM” value amounted to 100.61% and the “Inhibition at 50 μM” value is given as 100%. In addition, the “Inhibition at 100 μM” value is 100%.

With `CSCC[C@H](NC(=O)[C@@H]1CCCN1C(=O)[C@H](CCC(N)=O)NC(=O)CNC(=O)[C@@H]1CCCN1C(=O)[C@H](CCCCN)NC(=O)[C@H](Cc1ccccc1)NC(=O)[C@H](CCCNC(=N)N)NC(=O)[C@H](CC(C)C)NC(=O)[C@H](CC(C)C)NC(=O)[C@H](Cc1c[nH]cn1)NC(=O)[C@@H](N)Cc1c[nH]c2ccccc12)C(=O)N[C@@H](Cc1ccc(O)cc1)C(=O)O` [compound 4] (H-WHLLRFKPGQPMY-OH; N-terminus and C-terminus assumed), the “Inhibition at 10 μM” value is below 90%, the “Inhibition at 20 μM” value is on record as below 90%, the “Inhibition at 50 μM” value amounted to 100% and the “Inhibition at 100 μM” value was determined as 100%.

`CSCC[C@H](NC(=O)[C@@H]1CCCN1C(=O)[C@H](CCC(N)=O)NC(=O)CNC(=O)[C@@H]1CCCN1C(=O)[C@H](CCCCN)NC(=O)[C@H](Cc1ccccc1)NC(=O)[C@H](CCCNC(=N)N)NC(=O)[C@H](CC(C)C)NC(=O)[C@H](Cc1c[nH]c2ccccc12)NC(=O)[C@H](Cc1c[nH]cn1)NC(=O)[C@@H]1CCCN1)C(=O)N[C@@H](Cc1ccc(O)cc1)C(=O)O` [compound 5] (H-PHWLRFKPGQPMY-OH; N-terminus and C-terminus assumed): the “Inhibition at 10 μM” value is recorded as below 90%, the “Inhibition at 20 μM” value is given as below 90%, the “Inhibition at 50 μM” value was determined as 100% and the “Inhibition at 100 μM” value was found to be 100%.

`CSCC[C@H](NC(=O)[C@@H]1CCCN1C(=O)[C@H](C)NC(=O)CNC(=O)[C@H](CCCNC(=N)N)NC(=O)[C@H](CCCCN)NC(=O)[C@H](CC(C)C)NC(=O)[C@H](CCC(N)=O)NC(=O)[C@@H](NC(=O)[C@H](Cc1c[nH]c2ccccc12)NC(=O)[C@H](Cc1c[nH]cn1)NC(=O)[C@@H]1CCCN1)C(C)C)C(=O)N[C@@H](Cc1ccc(O)cc1)C(=O)O` [compound 6] (H-PHWVQLKRGAPMY-OH; N-terminus and C-terminus assumed): the “Inhibition at 10 μM” value was below 90%, the “Inhibition at 20 μM” value is listed as below 90%, the “Inhibition at 50 μM” value came to 100% and the “Inhibition at 100 μM” value is 100%.

Regarding `CC[C@H](C)[C@H](NC(=O)[C@H](CCC(N)=O)NC(=O)[C@H](CC(C)C)NC(=O)[C@H](Cc1c[nH]c2ccccc12)NC(=O)[C@H](Cc1c[nH]cn1)NC(=O)[C@@H](N)CCCCN)C(=O)N[C@@H](CCCCN)C(=O)N[C@@H](Cc1ccc(O)cc1)C(=O)NCC(=O)N[C@@H](CCC(=O)O)C(=O)N1CCC[C@H]1C(=O)N[C@@H](CCSC)C(=O)N[C@@H](Cc1ccc(O)cc1)C(=O)O` [compound 7] (H-KHWLQIKYGEPMY-OH; N-terminus and C-terminus assumed), the “Inhibition at 10 μM” value is reported as below 90%, the “Inhibition at 20 μM” value is on record as below 90%, the “Inhibition at 50 μM” value was 100% and the “Inhibition at 100 μM” value was determined as 100%.

Consider `CC[C@H](C)[C@H](NC(=O)[C@H](Cc1c[nH]c2ccccc12)NC(=O)[C@H](Cc1c[nH]cn1)NC(=O)[C@@H](N)CCCCN)C(=O)N[C@@H](CCCCN)C(=O)N[C@@H](CC(C)C)C(=O)N[C@@H](CCSC)C(=O)N1CCC[C@H]1C(=O)NCC(=O)N[C@@H](CCC(N)=O)C(=O)NCC(=O)N[C@@H](CCSC)C(=O)N[C@@H](Cc1ccc(O)cc1)C(=O)O` [compound 8] (H-KHWIKLMPGQGMY-OH; N-terminus and C-terminus assumed), for which the “Inhibition at 10 μM” value is reported as below 90%, the “Inhibition at 20 μM” value is on record as below 90%, the “Inhibition at 50 μM” value came to 100% and the “Inhibition at 100 μM” value came to 100%.

`CSCC[C@H](NC(=O)[C@@H]1CCCN1C(=O)[C@H](CCC(N)=O)NC(=O)CNC(=O)[C@@H]1CCCN1C(=O)[C@H](CCCCN)NC(=O)[C@H](Cc1ccccc1)NC(=O)[C@H](CCCNC(=N)N)NC(=O)[C@H](CC(C)C)NC(=O)[C@H](Cc1c[nH]c2ccccc12)NC(=O)[C@H](Cc1c[nH]cn1)NC(=O)[C@@H](N)CCCCN)C(=O)N[C@@H](Cc1ccc(O)cc1)C(=O)O` [compound 9] (H-KHWLRFKPGQPMY-OH; N-terminus and C-terminus assumed): the “Inhibition at 10 μM” value is below 90%, the “Inhibition at 15 μM” value is 100%, the “Inhibition at 20 μM” value was determined as 100% and the “Inhibition at 50 μM” value came out at 100%. Also, the “Inhibition at 100 μM” value is on record as 100% and the “active against Botrytis at 15 μM” value is listed as “active”.

For `CC[C@H](C)[C@H](NC(=O)[C@H](CCC(N)=O)NC(=O)[C@@H](NC(=O)[C@H](Cc1c[nH]c2ccccc12)NC(=O)[C@H](Cc1c[nH]cn1)NC(=O)[C@@H]1CCCN1)C(C)C)C(=O)N[C@@H](CCCCN)C(=O)N[C@@H](CC(C)C)C(=O)NCC(=O)N[C@@H](CCC(N)=O)C(=O)N1CCC[C@H]1C(=O)N[C@@H](CCSC)C(=O)N[C@@H](Cc1ccc(O)cc1)C(=O)O` [compound 10] (H-PHWVQIKLGQPMY-OH; N-terminus and C-terminus assumed), the “Inhibition at 10 μM” value is on record as below 90%, the “Inhibition at 20 μM” value is below 90%, the “Inhibition at 50 μM” value turned out to be 100% and the “Inhibition at 100 μM” value came out at 100%.

In the case of `CC[C@H](C)[C@H](NC(=O)[C@H](Cc1c[nH]c2ccccc12)NC(=O)[C@H](Cc1c[nH]cn1)NC(=O)[C@@H](N)CCCCN)C(=O)N[C@H](C(=O)N[C@@H](Cc1ccccc1)C(=O)N[C@@H](CCCCN)C(=O)N1CCC[C@H]1C(=O)NCC(=O)N[C@@H](CCC(N)=O)C(=O)N1CCC[C@H]1C(=O)N[C@@H](CCSC)C(=O)N[C@@H](Cc1ccc(O)cc1)C(=O)O)[C@@H](C)O` [compound 11] (H-KHWITFKPGQPMY-OH; N-terminus and C-terminus assumed), the “Inhibition at 10 μM” value was below 90%, the “Inhibition at 20 μM” value is on record as below 90%, the “Inhibition at 50 μM” value is given as 100% and the “Inhibition at 100 μM” value is recorded as 100%.

As to `CSCC[C@H](NC(=O)[C@@H]1CCCN1C(=O)[C@H](CCC(N)=O)NC(=O)CNC(=O)[C@@H]1CCCN1C(=O)[C@H](CCCCN)NC(=O)[C@H](Cc1ccccc1)NC(=O)[C@H](CCCNC(=N)N)NC(=O)[C@H](CC(C)C)NC(=O)[C@@H](NC(=O)[C@H](Cc1c[nH]cn1)NC(=O)[C@@H](N)CCCCN)C(C)C)C(=O)N[C@@H](Cc1ccc(O)cc1)C(=O)O` [compound 12] (H-KHVLRFKPGQPMY-OH; N-terminus and C-terminus assumed), the “Inhibition at 10 μM” value is listed as below 90%, the “Inhibition at 15 μM” value was found to be 98.79%, the “Inhibition at 20 μM” value is 99.94% and the “Inhibition at 50 μM” value is reported as 100%. For the same molecule, the “Inhibition at 100 μM” value is 100% and the “active against Botrytis at 15 μM” value is on record as “active”.
